Experimental data as given in ChEMBL document CHEMBL4177654, “Synthesis, antifungal and antitumor activity of two new types of imidazolin-2-ones” (Bioorg Med Chem, 2017).
pIC50: −log10 of the molar value. The source made the active and inactive calls. No cut-off for these calls is given here.

Columns and labels:
Botrytis cinerea [1] = test: Antifungal activity against Botrytis cinerea assessed as inhibition of mycelium growth at 25 ug/ml after 48 hrs relative to control; assay type: functional
Botrytis cinerea [2] = test: Antifungal activity against Botrytis cinerea assessed as inhibition of spore germination at 50 ug/ml after 6 hrs by microscopic analysis relative to control; assay type: functional
Botrytis cinerea [3] = test: Antifungal activity against Botrytis cinerea assessed as inhibition of mycelium growth at 5 ug/ml after 48 hrs relative to control; assay type: functional
[4] = Inhibition of mTORC2 in human HeLa cells assessed as decrease in AKT phosphorylation at S473 residue preincubated for 1 hr followed by EGF1 stimulation by ELISA; assay type: cell-based
HeLa = test: Inhibition of mTORC2 in human HeLa cells assessed as decrease in AKT phosphorylation at S473 residue preincubated for 1 hr followed by EGF1 stimulation after 30 mins by Western blot analysis; assay type: cell-based
Botrytis cinerea [5] = test: Antifungal activity against Botrytis cinerea assessed as inhibition of spore germination at 5 ug/ml after 6 hrs by microscopic analysis relative to control; assay type: functional

## C=C(C)n1c(=O)n(C(C)=O)c2cc([N+](=O)[O-])ccc21
Botrytis cinerea [1]
  inhibition at 25 µg/mL: 33.5%
Botrytis cinerea [2]
  inhibition at 50 µg/mL: 85.2%

## C=C(C)n1c(=O)n(C(=O)CCC)c2cc(Br)cnc21
Botrytis cinerea [1]
  inhibition at 25 µg/mL: 97.3%
Botrytis cinerea [2]
  inhibition at 50 µg/mL: 99%

## C=C(C)n1c(=O)n(C(=O)c2cccc(C)c2)c2cc([N+](=O)[O-])ccc21
Botrytis cinerea [2]
  inhibition at 50 µg/mL: 60.2%

## C=C(C)n1c(=O)n(C(=O)c2ccccc2)c2cc(Br)cnc21
Botrytis cinerea [1]
  inhibition at 25 µg/mL: 37.2%
Botrytis cinerea [2]
  inhibition at 50 µg/mL: 38.8%

## C=C(C)n1c(=O)n(C(=O)CC)c2cc([N+](=O)[O-])ccc21
Botrytis cinerea [2]
  inhibition at 50 µg/mL: 45.2%

## C=C(C)n1c(=O)n(C(=O)c2ccccc2C)c2ccc([N+](=O)[O-])cc21
Botrytis cinerea [1]
  inhibition at 25 µg/mL: 18.5%
Botrytis cinerea [2]
  inhibition at 50 µg/mL: 68.3%

## C=C(C)n1c(=O)n(C(=O)CCC)c2cc([N+](=O)[O-])ccc21
Botrytis cinerea [2]
  inhibition at 50 µg/mL: 46.7%

## C=C(C)n1c(=O)n(C(=O)CCCCCCC)c2cc([N+](=O)[O-])ccc21
Botrytis cinerea [2]
  inhibition at 50 µg/mL: 30.7%

## COC(=O)Nc1nc2ccccc2[nH]1 [CARBENDAZIM]
Botrytis cinerea [3]
  inhibition at 5 µg/mL: 94.2%

## C=C(C)n1c(=O)n(C(=O)CC)c2ccc([N+](=O)[O-])cc21
Botrytis cinerea [1]
  inhibition at 25 µg/mL: 8.72%
Botrytis cinerea [2]
  inhibition at 50 µg/mL: 49.6%

## C=C(C)n1c(=O)n(C(=O)c2ccccc2C)c2cc(Br)cnc21
Botrytis cinerea [1]
  inhibition at 25 µg/mL: 53.7%
Botrytis cinerea [2]
  inhibition at 50 µg/mL: 49%

## NC1(c2ccc(-c3nc4ccn5c(=O)[nH]nc5c4cc3-c3ccccc3)cc2)CCC1 [MK-2206]
[4]
  pIC50: 7.64

## C=C(C)n1c(=O)n(C(=O)CCCCCCC)c2ccc([N+](=O)[O-])cc21
Botrytis cinerea [2]
  inhibition at 50 µg/mL: 32.5%

## C=C(C)n1c(=O)n(C(=O)c2cccc(C)c2)c2ccc([N+](=O)[O-])cc21
Botrytis cinerea [1]
  inhibition at 25 µg/mL: 11.4%
Botrytis cinerea [2]
  inhibition at 50 µg/mL: 65.8%

## C=C(C)n1c(=O)n(C(=O)CCCC)c2cc([N+](=O)[O-])ccc21
Botrytis cinerea [1]
  inhibition at 25 µg/mL: 7.26%
Botrytis cinerea [2]
  inhibition at 50 µg/mL: 48.5%

## C=C(C)n1c(=O)n(C(=O)c2ccc(Cl)cc2)c2cc(Br)cnc21
Botrytis cinerea [1]
  inhibition at 25 µg/mL: 54%
Botrytis cinerea [2]
  inhibition at 50 µg/mL: 28.6%

## C=C(C)n1c(=O)n(C(=O)c2cccc(C)c2)c2cc(Br)cnc21
Botrytis cinerea [1]
  inhibition at 25 µg/mL: 41.5%
Botrytis cinerea [2]
  inhibition at 50 µg/mL: 17.4%

## C=C(C)n1c(=O)n(C(=O)c2ccccc2Cl)c2cc([N+](=O)[O-])ccc21
Botrytis cinerea [2]
  inhibition at 50 µg/mL: 59.2%

## C=C(C)n1c(=O)n(C(=O)c2cccc(Cl)c2)c2cc(Br)cnc21
Botrytis cinerea [1]
  inhibition at 25 µg/mL: 55.8%
Botrytis cinerea [2]
  inhibition at 50 µg/mL: 59.2%

## C=C(C)n1c(=O)n(C(=O)c2ccccc2C)c2cc([N+](=O)[O-])ccc21
Botrytis cinerea [2]
  inhibition at 50 µg/mL: 60.8%

## C=C(C)n1c(=O)n(C(=O)c2ccccc2Cl)c2cc(Br)cnc21
Botrytis cinerea [1]
  inhibition at 25 µg/mL: 17.5%
Botrytis cinerea [2]
  inhibition at 50 µg/mL: 13.3%

## C=C(C)n1c(=O)n(C(=O)c2ccccc2Cl)c2ccc([N+](=O)[O-])cc21
Botrytis cinerea [1]
  inhibition at 25 µg/mL: 13.6%
Botrytis cinerea [2]
  inhibition at 50 µg/mL: 72.1%

## C=C(C)n1c(=O)n(C(=O)CCl)c2cc(Br)cnc21
Botrytis cinerea [1]
  inhibition at 25 µg/mL: 69%
HeLa
  inhibition: Active
Botrytis cinerea [2]
  inhibition at 50 µg/mL: 74.9%

## C=C(C)n1c(=O)n(C(=O)Cc2ccccc2)c2cc(Br)cnc21
Botrytis cinerea [1]
  inhibition at 25 µg/mL: 66.7%
HeLa
  inhibition: Active
Botrytis cinerea [2]
  inhibition at 50 µg/mL: 59.2%

## C=C(C)n1c(=O)n(C(=O)CCCC)c2ccc([N+](=O)[O-])cc21
Botrytis cinerea [2]
  inhibition at 50 µg/mL: 51.8%

## C=C(C)n1c(=O)n(C(=O)CCCCC)c2cc([N+](=O)[O-])ccc21
Botrytis cinerea [1]
  inhibition at 25 µg/mL: 5.65%
Botrytis cinerea [2]
  inhibition at 50 µg/mL: 42.9%

## C=C(C)n1c(=O)n(C(=O)c2cccc(Cl)c2)c2cc([N+](=O)[O-])ccc21
Botrytis cinerea [1]
  inhibition at 25 µg/mL: 10.7%
Botrytis cinerea [2]
  inhibition at 50 µg/mL: 63.4%

## CO/C=C(/C(=O)OC)c1ccccc1Oc1cc(Oc2ccccc2C#N)ncn1 [AZOXYSTROBIN]
Botrytis cinerea [5]
  inhibition at 5 µg/mL: 92.1%
Botrytis cinerea [3]
  inhibition at 5 µg/mL: 98.8%

## C=C(C)n1c(=O)n(C(=O)CCCCC)c2cc(Br)cnc21
Botrytis cinerea [1]
  inhibition at 25 µg/mL: 42.5%
Botrytis cinerea [2]
  inhibition at 50 µg/mL: 23.5%

## C=C(C)n1c(=O)n(C(=O)CCCC)c2cc(Br)cnc21
Botrytis cinerea [1]
  inhibition at 25 µg/mL: 60.1%
Botrytis cinerea [2]
  inhibition at 50 µg/mL: 59.2%

## C=C(C)n1c(=O)n(C(=O)C2CC2)c2cc(Br)cnc21
Botrytis cinerea [1]
  inhibition at 25 µg/mL: 92.8%
Botrytis cinerea [2]
  inhibition at 50 µg/mL: 78.6%

## C=C(C)n1c(=O)n(C(C)=O)c2ccc([N+](=O)[O-])cc21
Botrytis cinerea [1]
  inhibition at 25 µg/mL: 97.7%
Botrytis cinerea [2]
  inhibition at 50 µg/mL: 100%

## C=C(C)n1c(=O)n(C(=O)CCCCCCC)c2cc(Br)cnc21
Botrytis cinerea [1]
  inhibition at 25 µg/mL: 51.3%
Botrytis cinerea [2]
  inhibition at 50 µg/mL: 49%

## C=C(C)n1c(=O)n(C(=O)CCC)c2ccc([N+](=O)[O-])cc21
Botrytis cinerea [2]
  inhibition at 50 µg/mL: 52.4%

## C=C(C)n1c(=O)n(C(=O)c2cccc(Cl)c2)c2ccc([N+](=O)[O-])cc21
Botrytis cinerea [1]
  inhibition at 25 µg/mL: 16.7%
Botrytis cinerea [2]
  inhibition at 50 µg/mL: 86.2%

## C=C(C)n1c(=O)n(C(=O)CC)c2cc(Br)cnc21
Botrytis cinerea [1]
  inhibition at 25 µg/mL: 94.2%
Botrytis cinerea [2]
  inhibition at 50 µg/mL: 98%

## C=C(C)n1c(=O)n(C(=O)CCCCCC)c2cc(Br)cnc21
Botrytis cinerea [1]
  inhibition at 25 µg/mL: 44.9%
Botrytis cinerea [2]
  inhibition at 50 µg/mL: 59.2%

## C=C(C)n1c(=O)n(C(=O)CCCCC)c2ccc([N+](=O)[O-])cc21
Botrytis cinerea [2]
  inhibition at 50 µg/mL: 55.9%
